Measurements taken from US20090155345A1, “METHODS FOR AFFECTING LIPOSOME COMPOSITION ULTRASOUND IRRADIATION” (BEN GURION UNIVERSITY OF THE NEGEV RESEARCH AND DEVELOPMENT …, priority 2005, published 2009).
Structures can show the parent of a compound that is named as a salt.

How the values were obtained:
[1] = Chemical integrity of LFUS-irradiated drugs and lipids (HPLC, NMR, TLC); type: physicochemical; conditions: 20 kHz, 3.3 W/cm^2, 30 to 180 s; HPLC (doxorubicin, MPS), NMR (cisplatin)
Procedure: Thin layer gel chromatography (TLC) was used to determine if any chemical changes were induced in the liposome lipids by exposure to ultrasonic irradiation.
MPS concentration and chemical integrity were determined using HPLC (Hewlett Packard Liquid Chromatograph 1090). ChemStation software (Hewlett Packard) controlled all modules and was used for analysis of the chromatography data. The analytical column used was a C18 5-micron Econosphere, length 150 mm, inner diameter 4.6 mm (Alltech, Carnforth, UK). Sample injection volume was 20 μL. Eluent was monitored at a wavelength of 245 nm with a 10 nm bandwidth.
Experiments were performed on an INOVA 500-MHz spectrometer (Varian, Palo Alto, Calif.) using standard pulse sequences. The Pt chemical shifts were assigned relative to the external reference signal of K2PtCl4, set at −1,624 ppm.

[2] = cited from earlier work

With `COc1cccc2c1C(=O)c1c(O)c3c(c(O)c1C2=O)C[C@@](O)(C(=O)CO)C[C@@H]3O[C@H]1C[C@H](N)[C@H](O)[C@H](C)O1` [doxorubicin, Doxorubicin-HCl] the “chemical changes of drug after LFUS” value [1] was “does not induce any chemical changes”.
In the case of `C[C@H]1C[C@@H]2[C@H]([C@@H](O)C[C@@]3(C)[C@H]2CC[C@]3(O)C(=O)COC(=O)CCC(=O)O)[C@@]2(C)C=CC(=O)C=C12` [MPS, Methylprednisolone hemisuccinate sodium salt], the pKa [2] is listed as 4.65.
In the case of `N.N.[Cl][Pt][Cl]` [cisplatin, Cisplatin], the “chemical changes of drug after LFUS” value [1] is reported as “does not induce any chemical changes”.
